The values that follow come from PubChem BioAssay (NCI).

Holding throughout (experiment): NCI anticancer screen, dose series, 48 h
Assay [1] concerns BT-549 breast.
The test system of assay [2] is KM12 colon.
Assay [3] concerns M14 melanoma.
Assay [4] concerns MDA-N.
For assay [5], the system named is OVCAR-3 ovarian.
Assay [6] deals with OVCAR-5 ovarian.
For assay [7], the system named is SF-539 CNS.

Where “and” joins values, the source holds several entries; their conditions need not be identical. Equal entries are not always repeated.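 In this assay, cells in 96-well plates receive the compound at five concentrations for 48 hours. Endpoints are linearly interpolated between the surrounding concentrations. Definition used: TGI = concentration required for complete inhibition of growth.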 A value given as a limit tells only on which side of the number the result lay.

Regarding `CC1=NN=C(C)C1N=Nc1ccc2nc(C)[nH]c2c1`, the TGI in assay [1] is greater than 100 µM; in assay [2], greater than 100 µM; in assay [3] it was greater than 100 µM; in assay [4], greater than 100 µM; in assay [5], greater than 73.6 µM; in assay [6], greater than 100 µM. This molecule yielded a TGI in assay [7] greater than 88.6 µM.

`CCOC(=O)C(NC(=O)OCc1ccccc1)C(=O)O` (stereo unspecified): the TGI in assay [1], in assay [2], in assay [3], in assay [4], in assay [5] and in assay [6] was greater than 100 µM in each case. Besides, in assay [7], the TGI was greater than 100 µM.

Regarding `O=C1CN(c2ccccc2)Cc2nc(Cl)ccc2N1`, the TGI in assay [1], in assay [2], in assay [3], in assay [4], in assay [6] and in assay [7] was greater than 100 µM throughout.

As to `O=C(O)c1nc2ccccc2nc1Nc1ccc(Cl)c(Cl)c1`, the TGI in assay [1] is 61.4 µM; in assay [2], 54 µM; in assay [3], 82 µM; in assay [4] it was greater than 100 µM; in assay [5] it was 37.2 µM; in assay [6], greater than 100 µM. Further, in assay [7], the TGI amounted to 43.7 µM.

With `Brc1ccc(C2C3CSc4ccccc4C3=NN2c2ccccc2)cc1` (stereo unspecified), the TGI in assay [1], in assay [2], in assay [3], in assay [4], in assay [5] and in assay [7] was greater than 100 µM throughout.

Consider `CC(C)=CCCC(C)(OC1OC(CO)C(O)C(O)C1O)C1CCC2(C)C1C(O)CC1C3(C)CCC(O)C(C)(C)C3C(OC3OC(CO)C(O)C(O)C3OC3OC(C)C(O)C(O)C3O)CC12C` (stereo unspecified) (tested in a mixture with another compound), for which the TGI in assay [1], in assay [2], in assay [3], in assay [4], in assay [5] and in assay [6] was greater than 75 µM each time. Besides, the TGI in assay [7] was greater than 75 µM.

With `CSc1nc(=S)[nH]c2c1c(C)nn2-c1ccccc1`, the TGI in assay [1] was greater than 100 µM; in assay [3], greater than 100 µM; in assay [4], greater than 100 µM; in assay [5] it was greater than 100 µM; in assay [6] it was greater than 100 µM; in assay [7], 98.2 µM.

Regarding `CSc1ncnc2c1cnn2Cc1cnnn1COCC(O)CO` (stereo unspecified), the TGI in assay [1], in assay [2], in assay [3], in assay [4], in assay [5] and in assay [6] was greater than 100 µM in each case. In assay [7], this molecule came in with a TGI greater than 100 µM.

As to `CC1=CC(=O)CC2(C)CCC(C(C)CC(=O)CC(C)C)CC12OO` (stereo unspecified), the TGI is 33.2 µM and 29.4 µM in assay [2]; 32.4 µM and 30.1 µM in assay [3]; 34.7 µM and 33.4 µM in assay [4]; 35.5 µM and 47.5 µM in assay [6]; 28.9 µM and 30 µM in assay [7].

Regarding `O=C1NC2NC3NC(=O)NC3NC2N1` (stereo unspecified), the TGI in assay [1], in assay [2], in assay [3], in assay [4], in assay [5] and in assay [6] was greater than 100 µM throughout. The TGI in assay [7] was greater than 100 µM.

Turning to `CC(CSC(=N)N)C(N)=O` (stereo unspecified), the TGI in assay [1], in assay [2], in assay [3], in assay [4], in assay [5] and in assay [6] was greater than 100 µM in each case.

Consider `Cc1ccc(S(=O)c2cccs2)cc1` (stereo unspecified), for which the TGI in assay [1], in assay [2], in assay [3], in assay [4], in assay [5] and in assay [6] was greater than 100 µM throughout. In assay [7], this molecule had a TGI greater than 100 µM.

Turning to `O=C(NCCN1CCCCC1)c1ccc(Br)cc1`, the TGI in assay [1], in assay [2], in assay [3], in assay [4], in assay [5] and in assay [6] was greater than 100 µM each time.

As for `CC(C)(C)OC(=O)NC1CCCC1C(=O)C1=CCCC1` (stereo unspecified), the TGI in assay [1], in assay [2], in assay [3], in assay [4], in assay [5] and in assay [6] was greater than 100 µM throughout.

Take `COC(=O)C1(NC(=O)C(Cc2ccccc2)N(C(=O)OC(C)(C)C)C(=O)OC(C)(C)C)CCCC1` (stereo unspecified): the TGI in assay [3], in assay [4], in assay [6] and in assay [7] was greater than 100 µM each time.

With `CC1=NN(c2nc(N)nc(NS(=O)(=O)c3cc(C)c(Cl)cc3S)n2)C(C)(C)C1`, the TGI in assay [1], in assay [2], in assay [3], in assay [4], in assay [5] and in assay [6] was greater than 10 µM in each case. For the same molecule, in assay [7], the TGI is greater than 10 µM.

For the molecule `CS(=O)(=O)N1CC(CCl)c2ccc(NO)cc21` (stereo unspecified), the TGI is 25.1 µM in assay [1]; 36.2 µM in assay [2]; 34.3 µM in assay [3]; 32.4 µM in assay [4]; 40.7 µM in assay [5]; 40.5 µM in assay [6]. For the same molecule, the TGI in assay [7] was 26.1 µM.

In the case of `C1CNOCCCONCCCNOCCCONC1`, the TGI in assay [1], in assay [2], in assay [3], in assay [4], in assay [5] and in assay [6] was greater than 100 µM each time.

As to `COc1nc(N=P(c2ccccc2)(c2ccccc2)c2ccccc2)cc(=O)n1C`, the TGI in assay [1], in assay [2], in assay [3], in assay [4], in assay [5] and in assay [6] was greater than 100 µM in each case. The molecule also had a TGI in assay [7] greater than 100 µM.
